Entries after “also recorded” stand apart in the source; their conditions may differ. Where no end group is shown, it is not given here.
Tests used:
[1] = Plasma stability at 37° C., rat plasma; type: in vitro ADME
Protocol: (§1) Plasma Stability in Mouse, Rat and Human Plasma at 37° C.
(§2) Plasma: mouse (C57 Black 6 Male), rat (Sprague Dawley) and human containing heparin as an anti-coagulant.
(§3) Plasma samples in duplicate were incubated with peptide at 3 μM in a 600 μl volume at 37° C. with shaking. 50 μl aliquots were withdrawn after 2, 5, 30, 60 and 120 mins and quenched into 150 μl of ice-cold methanol containing the internal standard (tolbutamide). Samples were stored at −20° C. for 2 hours to allow protein precipitation. Samples were then centrifuged at 2500×g and the resulting supernatants transferred to a 96 well plate for LC-MS/MS analysis. Thalf was calculated in all matrices for each peptide.

[2] = Plasma stability at 37° C., human plasma; type: in vitro ADME
Protocol: as §1, §2, §3

[3] = Plasma stability at 37° C., mouse plasma; type: in vitro ADME
Protocol: as §1, §2, §3

[4] = tested on: LPS induced lung neutrophil influx; assay: LPS mouse model of lung inflammation (BAL neutrophil count); type: in vivo; settings: for efficacy against LPS induced lung neutrophil influx: 50 pg/mouse i.v.
[5] = Plasma stability, overall statements for mouse, rat and human plasma; type: in vitro ADME; settings: for plasma stability / half-life (Th) compared with parent peptide SEQ ID NO: 17: rat and human plasma
Protocol: as §1, §2, §3

[6] = tested on: recruitment of eosinophils; settings: animal model of allergic airway inflammation; from WO2009106819; cited from earlier work
[7] = Table 7, same conditions as Example 3, read-out: Plasma half life Rat
[8] = Table 7, same conditions as Example 3, read-out: Plasma half life Man
[9] = Table 7, same conditions as Example 3, read-out: Plasma half life Mouse
[10] = Table 4, read-out: Plasma half life Rat
[11] = Table 4, read-out: Plasma half life Man
[12] = Table 4, read-out: Plasma half life Mouse

Molecule: CC(C)C[C@H](NC(=O)CNC(=O)[C@H](N)Cc1c[nH]cn1)C(=O)N[C@@H](CC(N)=O)C(=O)N[C@H](C(=O)N[C@@H](CC(N)=O)C(=O)N[C@H](C(=O)N[C@@H](CC(C)C)C(=O)N[C@@H](CO)C(=O)N[C@@H](Cc1ccc(O)cc1)C(=O)NCC(=O)N[C@H](CC(=O)O)C(N)=O)[C@@H](C)O)C(C)C [SEQ ID NO: 14, hGLNVNTLSYGd-NH2]
- half-life [1, 7]: 2.55 h
- half-life [2, 8]: 2.58 h
- half-life [3, 9]: 0.833 h

Molecule: CC(C)C[C@H](NC(=O)CNC(=O)[C@@H](N)Cc1c[nH]cn1)C(=O)N[C@@H](CC(N)=O)C(=O)N[C@H](C(=O)N[C@@H](CC(N)=O)C(=O)N[C@H](C(=O)N[C@@H](CC(C)C)C(=O)N[C@@H](CO)C(=O)N[C@@H](Cc1ccc(O)cc1)C(=O)NCC(=O)N[C@H](CC(=O)O)C(N)=O)[C@@H](C)O)C(C)C [SEQ ID NO: 15, HGLNVNTLSYGd-NH2]
- half-life [1, 7]: 3.03 h
- half-life [2, 8]: 1.4 h
- half-life [3, 9]: 0.65 h

Molecule: CC(C)C[C@H](NC(=O)CNC(=O)[C@H](N)Cc1c[nH]cn1)C(=O)N[C@@H](CC(N)=O)C(=O)N[C@H](C(=O)N[C@@H](CC(N)=O)C(=O)N[C@H](C(=O)N[C@@H](CC(C)C)C(=O)N[C@@H](CO)C(=O)N[C@@H](Cc1ccc(O)cc1)C(=O)NCC(=O)N[C@@H](CC(=O)O)C(N)=O)[C@@H](C)O)C(C)C [SEQ ID NO: 16, hGLNVNTLSYGD-NH2]
- half-life [1, 7]: 3.33 h
- half-life [2, 8]: 1.85 h
- half-life [3, 9]: 0.583 h

Molecule: CC(C)C[C@H](NC(=O)CNC(=O)[C@@H](N)Cc1c[nH]cn1)C(=O)N[C@@H](CC(N)=O)C(=O)N[C@H](C(=O)N[C@@H](CC(N)=O)C(=O)N[C@H](C(=O)N[C@@H](CC(C)C)C(=O)N[C@@H](CO)C(=O)N[C@@H](Cc1ccc(O)cc1)C(=O)NCC(=O)N[C@@H](CC(=O)O)C(N)=O)[C@@H](C)O)C(C)C [SEQ ID NO: 17, HGLNVNTLSYGD-NH2]
- half-life ([1]; Table 3, 37° C., peptide 3 μM, read-out: Plasma Half Life (Th) Rat): 0.717 h
- half-life ([2]; Table 3, 37° C., peptide 3 μM, read-out: Plasma Half Life (Th) Man): 1.2 h
- half-life ([3]; Table 3, 37° C., peptide 3 μM, read-out: Plasma Half Life (Th) Mouse): 0.333 h
- effect on LPS induced lung neutrophil influx (number of neutrophils) ([4]; different doses (0.5, 5 or 50 pg/mouse)): reduction in the number of neutrophils

Molecule: CC(=O)N[C@H](CC(=O)O)C(=O)NCC(=O)N[C@H](Cc1ccc(O)cc1)C(=O)N[C@H](CO)C(=O)N[C@H](CC(C)C)C(=O)N[C@@H](C(=O)N[C@H](CC(N)=O)C(=O)N[C@@H](C(=O)N[C@H](CC(N)=O)C(=O)N[C@H](CC(C)C)C(=O)NCC(=O)N[C@H](Cc1c[nH]cn1)C(N)=O)C(C)C)[C@H](C)O [SEQ ID NO: 19, Ac-dGysltnvnlGh-NH2]
- plasma stability / half-life (Th) compared with parent peptide SEQ ID NO: 17 [5]: enhanced plasma stability
- half-life [1, 7]: > 6 h
- half-life [2, 8]: > 6 h
- half-life [3, 9]: > 6 h

Molecule: CC(=O)N[C@H](Cc1c[nH]cn1)C(=O)NCC(=O)N[C@H](CC(C)C)C(=O)N[C@H](CC(N)=O)C(=O)N[C@@H](C(=O)N[C@H](CC(N)=O)C(=O)N[C@@H](C(=O)N[C@H](CC(C)C)C(=O)N[C@H](CO)C(=O)N[C@H](Cc1ccc(O)cc1)C(=O)NCC(=O)N[C@H](CC(=O)O)C(N)=O)[C@H](C)O)C(C)C [SEQ ID NO: 20, Ac-hGlnvntlsyGd-NH2]
- plasma stability / half-life (Th) compared with parent peptide SEQ ID NO: 17 [5]: enhanced plasma stability
- half-life [1, 7]: 3.03 h
- half-life [2, 8]: > 6 h
- half-life [3, 9]: > 6 h

Molecule: CC(C)C[C@@H]1NC(=O)CNC(=O)[C@H](Cc2c[nH]cn2)NC(=O)[C@H](CC(=O)O)NC(=O)CNC(=O)[C@H](Cc2ccc(O)cc2)NC(=O)[C@H](CO)NC(=O)[C@H](CC(C)C)NC(=O)[C@H]([C@@H](C)O)NC(=O)[C@H](CC(N)=O)NC(=O)[C@H](C(C)C)NC(=O)[C@H](CC(N)=O)NC1=O [SEQ ID NO: 25, cyclic-HGLNVNTLSYGD-]
- plasma stability / half-life (Th) compared with parent peptide SEQ ID NO: 17 [5]: did not improve plasma stability
- half-life [1, 7]: 0.35 h
- half-life [2, 8]: 0.75 h
- half-life [3, 9]: 0.167 h

Molecule: H-DGSVVVNKVSEL-NH2 [SEQ ID NO: 3, DGSVVVNKVSEL-NH2]
- efficacy against LPS induced lung neutrophil influx ([4]; dosed up to 60 mins prior to LPS challenge (FIG. 2)): efficacious
- efficacy against LPS induced lung neutrophil influx ([4]; dosed up to 120 mins post LPS challenge (FIG. 3)): efficacious
- efficacy in the LPS mouse model ([4]; dosed intravenously): effective

Molecule: H-DGSVVVNKVSELPAGHGLNVNTLSYGDLAAD [SEQ ID NO: 1, reference compound]
- recruitment of eosinophils [6]: significantly reduce the recruitment of eosinophils
- inhibition of LPS induced lung neutrophil influx ([4]; dosed intravenously immediately prior to LPS challenge): significant inhibition; also recorded: only demonstrates efficacy when dosed immediately prior to LPS challenge
- activity against LPS induced lung neutrophil influx ([4]; i.v., given at earlier (FIG. 1) or later (FIG. 4) time points than LPS challenge): looses its activity

Molecule: H-GLNVNTLSYGDLAAD [SEQ ID NO: 23, GLNVNTLSYGDLAAD, reference compound]
- half-life [1, 10]: > 5.13 h
- half-life [2, 11]: > 5.62 h
- half-life [3, 12]: 1.03 h

Molecule: H-SELPAGHGLNVNTLS [SEQ ID NO: 5, SELPAGHGLNVNTLS]
- half-life [1, 10]: 1.32 h
- half-life [2, 11]: 1.85 h
- half-life [3, 12]: 0.2 h

Molecule: H-SELPAGHGLNVNTLSYGDLAAD [SEQ ID NO: 4]
- plasma half-life compared with fragment 3 (SEQ ID NO: 5) ([5]; rat and human plasma (Table 5 vs Table 4)): superior half-life
- half-life ([1]; Table 5, read-out: Plasma half-life Rat): > 6 h
- half-life ([2]; Table 5, read-out: Plasma half-life Man): > 6 h
- half-life ([3]; Table 5, read-out: Plasma half-life Mouse): > 6 h
- in vivo efficacy in the mouse LPS lung inflammation model ([4]; 0.5, 5 and 500 pg/dose (FIG. 7)): maintained in vivo efficacy
